Laboratory results reported in publication PMC10816640, “Discovery of Novel Diphenyl Acrylonitrile Derivatives That Promote Adult Rats’ Hippocampal Neurogenesis” (International Journal of Molecular Sciences, 2024).
Where “and” joins values, the source holds several entries; their conditions need not be identical. Equal entries are not always repeated. Marks after values point to notes of the source that are not given here.

How the values were obtained:
[1] = Pharmacokinetic study, plasma; format: in vivo, SD rats; conditions: rat blood/plasma, 4 mg/kg i.p.
Method: (§1) The SD rats (approximately 200 g) were randomly assigned to eight groups, with each group comprising three rats. All experimental procedures were carried out in accordance with the ethical guidelines outlined by the Ethics Committee of the Beijing Institute of Technology. The administration medium consisted of a combination of 5% dimethyl sulfoxide (DMSO) and 95% soybean oil. The drug was administered intraperitoneally at a dose of 4 mg/kg. Prior to the experiment, the experimental animals were subjected to a 12 h fasting period with free access to water. Following drug administration, blood samples were collected from the rat’s orbital vein at predetermined time points. The collected blood was then placed in sodium heparin anticoagulation tubes. The rats were euthanized, and their brain tissues were carefully extracted and loaded into 5 mL EP tubes. The collection time points for plasma and brain tissue samples were as follows: 0 min, 15 min, 30 min, 1 h, 2 h, 4 h, 8 h, and 24 h. Within 2 h after collection, the blood samples were centrifuged at 6000 rpm for 10 min at a temperature of 4 °C. The resulting samples were then stored in a −20 °C refrigerator.
(§2) Tissue samples were first weighed and homogenized to ensure consistent testing conditions. The determination of original compound concentrations in plasma and tissue homogenates was performed using LC-MS/MS. Specifically, 50 μL of plasma or tissue samples were mixed with 50 μL of propranolol and 100 μL of acetonitrile for protein precipitation. The resulting mixture was then centrifuged at 12,000 rpm for 5 min, and the supernatant was diluted and analyzed through LC-MS/MS. The liquid chromatography was conducted on a Thermo Scientific Q Exactive HF-X instrument (Thermo Fisher Scientific, Waltham, MA, USA), employing an ACQUITY UPLC BEH C18 Column with dimensions of 130 Å, 1.7 µm, 2.1 mm × 100 mm. Additionally, a pre-column equipped with an ACQUITY UPLC BEH C18 VanGuard Pre-Column (130 Å, 1.7 µm, 2.1 mm × 5 mm) was utilized. The liquid phase method employed gradient elution with mobile phases consisting of acetonitrile and a 0.1% formic acid aqueous solution. Mass spectrometry was conducted in positive ion mode. The quantification of drug concentration in plasma samples was performed using the internal standard method, and the obtained pharmacokinetic parameters were calculated using Phoenix WinNonlin 7.0 software.

[2] = Pharmacokinetic study, brain tissue distribution; format: in vivo, SD rats; conditions: 4 mg/kg i.p.
Method: as §1
as §2, with “Additionally, a pre-column equipped with an ACQUITY UPLC BEH C18 VanGuard Pre-Column (130 Å, 1.7 µm, 2.1 mm × 5 mm) was utilized. The liquid phase method employed gradient elution with mobile phases consisting of acetonitrile and a 0.1% formic acid aqueous solution. Mass spectrometry was conducted in positive ion mode.” left out

[3] = system: newborn cells in the subgranular zone; assay: BrdU+ newborn cells, rats sacrificed 28 days after BrdU; format: in vivo, rat; conditions: nine-week-old rats (n = 2), i.p. 4.0 mg/kg/day for 28 days, BrdU pulse, Figure 7A
Method: The study employed a rat model, wherein nine-week-old rats were administered intraperitoneally with the compound at a dose of 4.0 mg/kg/day for 28 days and then treated with a pulse of BrdU. Instead of sacrificing the rats 24 h after the BrdU injections, the rats were sacrificed after another 28 days. The brains were then isolated and cryosectioned. Eight randomly selected slices were subjected to immunohistochemical staining. This staining enabled the co-localization of the BrdU-incorporated cells with the NeuN marker, enabling the definition of the compounds that could promote the differentiation of newborn neural progenitor cells into mature functional neurons. The compounds were dissolved in reagent-grade soybean oil containing 10% ethanol to reach a drug concentration of 2.8 mg/mL. The rats in the experimental group received intraperitoneal injections of the compounds at a dose of 4.0 mg/kg/d for 28 consecutive days. As a control, the vehicle group was administered injections of reagent-grade soybean oil containing 10% ethanol. BrdU (Sigma-Aldrich, St. louis, MA, USA) solution, prepared in physiological saline at a concentration of 10 mg/mL, was administered to all rats on day 29. Each rat received two injections of BrdU at a dosage of 50 mg/kg, with a 2 h interval between injections. The rats were euthanized 24 h (or 28 days) after the final BrdU injection. Two or four rats per group were anesthetized using pentobarbital sodium (70 mg/kg) and subsequently perfused with physiological saline. The brain tissue was carefully dissected and fixed in 4% paraformaldehyde at 4 °C for one week. Next, the brain tissue underwent dehydration using a phosphate-buffered saline (PBS) solution containing 20% to 30% sucrose. Finally, the brain tissue was cryosectioned into slices with a thickness of 30 μm, and eight slices were randomly selected for further analysis. The assessment of new cell proliferation was conducted using BrdU staining. To eliminate endogenous peroxides, sections were exposed to 1% H2O2 for 30 min at RT. Cellular denaturation was achieved by treating the sections with 2 M HCl at 37 °C for 1 h, followed by rinsing in 0.1 M borate buffer (pH 8.5). Tissue sections were subjected to blocking in a solution consisting of 5% goat serum and 0.5% Triton X-100 in PBS at RT for 1–2 h. The specimens were then incubated overnight at 4 °C with a mouse primary antibody specific to BrdU (diluted at 1:500; Millipore, Billerica, MA, USA). Subsequently, the DAB kit was employed for 2 h of incubation at RT. The differentiation process of NPCs was visualized through the utilization of the NeuN/BrdU double staining technique. Tissue sections were subjected to an incubation period in a blocking buffer at RT for 1 to 2 h. The specimens were exposed to a rabbit anti-NeuN antibody (diluted at 1:500, Abcam, Cambridge, MA, UK) and a primary antibody, BrdU (diluted at 1:500), overnight at 4 °C. Afterwards, the sections were treated with anti-mouse 488 and anti-rabbit TRITC secondary antibodies for 2 h at RT. The data were presented as mean ± SEM (standard error of the mean) and visualized using GRAPHPAD PRISM 6 (Graphpad Software, La Jolla, CA, USA). Statistical analysis was conducted utilizing one-way analysis of variance (ANOVA) followed by a post hoc test. Subsequent to the statistical treatment, the observed discrepancies were determined to be statistically significant (p < 0.05).

SMILES | AUC0–inf [1] [ng·h/mL] | CL [1] | MRT [1] [h] | T1/2 [1] [h] | Tmax [1] [h] | Vz [1] | AUC0–24h ([1]; n = 3) [ng·h/mL] | Cmax ([1]; n = 3) [ng/mL] | Cmax ([2]; rat brain tissue, n = 3) [ng/g] | AUC0–24h ([2]; rat brain tissue, n = 3, 4 mg/kg) | Ratio = Cmax of Brain/Cmax of Blood ([2]; rat) | proliferative activity over the longer 28 day period (number of BrdU+ cells) [3]
CC(C)C(=O)Nc1ccc(/C=C(\C#N)c2ccc3c(c2)OCO3)cc1 [32b, (Z)-N-(4-(2-(benzo[d][1, 3]dioxol-5-yl)-2-cyanovinyl)phenyl)isobutyramide] | 385 ± 82.3 | 10,770 ± 2616 mL/h/kg | 2.46 ± 0.14 | 2.23 | 1.5 | 32,829 ± 4581 mL/kg | 383 ± 84.4 | 132 ± 9 | 168 ± 47 | 608 ng·h/g and 608 ± 220 ng·h/g | 1.28 ^a | –
CC(C)C(=O)Nc1ccc(/C(C#N)=C/c2ccc3c(c2)OCO3)cc1 [29b, (Z)-N-(4-(2-(benzo[d][1, 3]dioxol-5-yl)-1-cyanovinyl)phenyl)isobutyramide] | – | – | – | – | – | – | – | – | – | – | – | could promote the proliferation of progenitors
